Laboratory results published in PMC6359144 (International Journal of Molecular Sciences, 2019).
Like-named read-outs stand apart in the source and are kept apart here.

How the values were obtained:
518A2 melanoma cells [1] = experiment: MTT assay, 518A2 melanoma cells; assay type: cell-based, human; settings: for IC50: Homo sapiens, MTT, mean ± SD of four experiments
Procedure: (§1) HT-29 (ACC-299), HCT-116 (ACC-581) and DLD-1 (ACC-278) colon carcinoma, MCF-7 (ACC-115) breast carcinoma, KB-V1 (ACC-149), 518A2 (Department of Radiotherapy and Radiobiology, University Hospital Vienna) melanoma and Ea.Hy926 (ATCC no. CRL-2922) HUVEC derived endothelial hybrid cells line were grown in Dulbecco’s Modified Eagle Medium (DMEM; Biochrom), high glucose supplemented with 10% (v/v) fetal bovine serum (FBS; Biochrom.) and 1% (v/v) Antibiotic-Antimycotic solution (anti-anti; Thermo Scientific). HDFa human dermal fibroblasts (ATCC: PCS-201-012™) were grown in DMEM supplemented with 10% FBS, 1% anti-anti and 2 mM glutamine. The cells were incubated at 37 °C, 5% CO2, 95% humidified atmosphere. By repeated addition of topotecan or vinblastine at the maximum tolerated dose to the cell medium of MCF-7 and KB-V1 cells, the cells were rendered multidrug-resistant, indicated as MCF-7^Topo and KB-V1^Vbl, respectively. They were serially passaged following trypsinization by using 0.05% trypsin/0.02% EDTA (Biochrom). Mycoplasma contamination was routinely monitored, and only mycoplasma–free cultures were used.
(§2) MTT [3-(4,5-dimethylthiazol-2-yl)-2,5-diphenyltetrazolium bromide] (ABCR) was used to determine the cytotoxicity of test compounds as previously described. Briefly, HDFa human dermal fibroblasts and Ea.Hy926 endothelial hybrid cells (both 1 × 10^5 cells/mL, 100 µL/well), 518A2 melanoma, KB-V1^Vbl cervix carcinoma, MCF-7^Topo breast carcinoma, HT-29, DLD-1 and HCT-116 colon carcinoma (all 5 × 10^4 cells/mL, 100 µL/well) were grown in 96-well culture plates for 24 h. Then, various concentrations of the test compounds were added and the cells were incubated for 24-72 h at 37 °C. After adding 12.5 µL of a 0.5% MTT solution in PBS (final concentration 0.05%) to cell medium, microplates were incubated for 2 h and subsequently swiftly turned to discard the medium. The precipitate of formazan crystals was then dissolved in a 10% solution of SDS in DMSO containing 0.6% acetic acid. To ensure complete dissolution of formazan, microplates were incubated for at least 4 h at 37 °C. Finally, the absorbance at λ = 570 nm (formazan) and 630 nm (background) was measured using a microplate reader (Tecan F200). All experiments were carried out in quadruplicate and the percentage of viable cells was calculated as the mean ± SD with controls set to 100%. Selected graphs of MTT assays can be found in the Supporting Information (Figure S8).

[2] = system: HT-29 colon carcinoma cells; experiment: MTT assay, HT-29 colon carcinoma cells; assay type: cell-based, human; settings: Homo sapiens, MTT
Procedure: as §1, §2

[3] = system: DLD-1 colon carcinoma cells; experiment: MTT assay, DLD-1 colon carcinoma cells; assay type: cell-based; settings: Homo sapiens, DLD-1, read-out: IC50 DLD-1 (72 h)
Procedure: as §1, §2

[4] = system: KB-V1^Vbl cervix carcinoma cells; experiment: MTT assay, KB-V1^Vbl cervix carcinoma cells; assay type: cell-based; settings: Homo sapiens, read-out: IC50 KB-V1^Vbl (72 h)
Procedure: as §1, §2

[5] = system: Ea.Hy926 endothelial hybrid cells; experiment: MTT assay, Ea.Hy926 endothelial hybrid cells; assay type: cell-based; settings: Homo sapiens, EA.hy 926, read-out: IC50 Ea.Hy926 (72 h)
Procedure: as §1, §2

[6] = system: non-malignant HDFa dermal fibroblasts; experiment: MTT assay, HDFa dermal fibroblasts; assay type: cell-based; settings: Homo sapiens, read-out: IC50 HDFa (72 h)
Procedure: as §1
MTT [3-(4,5-dimethylthiazol-2-yl)-2,5-diphenyltetrazolium bromide] (ABCR) was used to determine the cytotoxicity of test compounds as previously described. Briefly, HDFa human dermal fibroblasts and Ea.Hy926 endothelial hybrid cells (both 1 × 10^5 cells/mL, 100 µL/well), 518A2 melanoma, KB-V1^Vbl cervix carcinoma, MCF-7^Topo breast carcinoma, HT-29, DLD-1 and HCT-116 colon carcinoma (all 5 × 10^4 cells/mL, 100 µL/well) were grown in 96-well culture plates for 24 h. Then, various concentrations of the test compounds were added and the cells were incubated for 24-72 h at 37 °C. […] Finally, the absorbance at λ = 570 nm (formazan) and 630 nm (background) was measured using a microplate reader (Tecan F200). All experiments were carried out in quadruplicate and the percentage of viable cells was calculated as the mean ± SD with controls set to 100%. […]

[7] = system: microtubule cytoskeleton in 518A2 melanoma cells; experiment: Immunofluorescence staining of microtubule cytoskeleton, 518A2 cells; assay type: cell-based, human; settings: 24 h
Procedure: 518A2 melanoma cells (5 × 10^4 cells/mL, 500 µL/well) or Ea.Hy926 endothelial hybrid cells (7.5 × 10^4 cells/mL, 500 µL/well) were seeded in 24-well plates on small glass coverslips and grown for 24 h. Then, the cells were exposed to the test compounds for 24 h. After washing the cells once with PBS, they were fixed in 3.7% formaldehyde in PBS (20 min, rt), and permeabilized and blocked in 1% BSA and 0.1% triton X-100 in PBS (30 min, rt). Then, the cells were incubated with monoclonal mouse anti-alpha-tubulin antibody (1 h, 37 °C). […] Then, the cells were washed for three times with PBS and once with water. The glass coverslips were mounted in 4-88 based mounting medium supplemented with 1 µg/mL DAPI for counterstaining the nuclei and 2.5% DABCO. Alterations of the microtubule were documented by a Zeiss Imager A1 AX10 fluorescence microscope (400× magnification).

518A2 melanoma cells [8] = experiment: DCFH-DA assay of intracellular ROS; assay type: cell-based, human; settings: 10 µM, 1 h, vehicle treated controls set to 100%
Excerpt: Gosch 2,3, Alexandra […] Rothemund 1, Thomas Mueller 4, […] Schobert 1, Bernhard Biersack 1,*, Andrea Volkamer 3 and Michael […] 2,* 1 Department of Chemistry, University of […], Germany; florian1.schmitt@uni-[…].rothemund@uni -[…].schobert@uni - bayreuth.de (R.S.) 2 Institute of Physiology, Charité-Universitätsmedizin Berlin, Charitéplatz 1, 10117 Berlin, Germany; […].), alexandra.[…].) 3 In Silico Toxicology Group, Institute of Physiology, Charité-Universitätsmedizin Berlin, Charitéplatz 1, 10117 Berlin, Germany; […] 4 Internal Medicine IV, University Hospital […], Germany; thomas.mueller@medizin.uni-[…] * Correspondence: bernhard.biersack@yahoo.com (B.B.); michael.hoepfner@charite.de (M.H.); Tel.: +49-921- 55- 2673 (B.B.); Tel: +49-030-450-528 -515(M.H.); Table of content Material and Methods ... S1 DCFH-DA assay. ... S1 Immuofluorescence staining of acetylated alpha-tubulin ... S2 Wound healing assay ... S2 Results ... S3 Effect on the microtubule cytoskeleton ... S3 Effect on the intracellular ROS levels ... S3 Effect on the acetylation of alpha-tubulin ... S3 Effect on migratory activity ... S5 Effect on mouse weight ... S6 Graphs of MTT assays ... S7 S1 Material and Methods DCFH-DA assay. The assay was performed as previously described. […] 100 μL/well) were grown in a black 96-well plate for 24 h. Then, the cell medium was exchanged for […] After […] and vehicle (DMSO) in serum-free DMEM for 1 h at 37 °C. Then, the cells were washed twice with 100 μL PBS and subsequently placed in a microplate reader (TECAN). The DCF-fluorescence (λex = 485 nm, λem = 535 nm) as a measure of ROS production was determined and that of vehicle treated controls set to 100%. Values exceeding 100% indicate a drug-induced ROS generation. The values of six independent assays were depicted as the means ± SD. There were no outliers and the data fulfilled variance homogeneity (Levene's test, p > 0.05).

[9] = 518A2, read-out: IC50 518A2 (72 h), 72 h
[10] = 518A2, 24 h, read-out: IC50 518A2 (24 h)
[11] = HT-29, read-out: IC50 HT-29 (72 h), 72 h
[12] = HT-29, 24 h, read-out: IC50 HT-29 (24 h)

Compound: COc1ccc(-c2ocnc2-c2cc(Br)c(OC)c(OC)c2)cc1OCCCCC(=O)NO [4e, N-Hydroxy-5-[1-methoxy-4-(4’-(3’’-bromo-4’’,5’’-dimethoxyphenyl)oxazol-5’-yl)-2-phenoxy]pentanamide]
- IC50 (518A2 melanoma cells [1]; [9]): 800 ± 70 nM
- IC50 (518A2 melanoma cells [1]; [10]): 2400 ± 300 nM
- IC50 [2, 11]: 1900 ± 200 nM
- IC50 [2, 12]: 2100 ± 600 nM
- IC50 [3]: 2100 ± 400 nM
- IC50 [4]: 2000 ± 300 nM
- IC50 [5]: 660 ± 10 nM
- IC50 [6]: > 100000 nM
- effect on microtubule cytoskeleton ([7]; […]): eroded the highly organized microtubule network, but left some intact clusters
- intracellular ROS level (518A2 melanoma cells [8]): 230 ± 31%

Compound: COc1ccc(-c2ocnc2-c2cc(Br)c(OC)c(OC)c2)cc1OCCCCCC(=O)NO [4f, N-Hydroxy-6-[1-methoxy-4-(4’-(3’’-bromo-4’’,5’’-dimethoxyphenyl)oxazol-5’-yl)-2-phenoxy]hexanamide]
- IC50 (518A2 melanoma cells [1]; [9]): 6400 ± 400 nM
- IC50 (518A2 melanoma cells [1]; [10]): 7600 ± 200 nM
- IC50 [2, 11]: 14200 ± 1600 nM
- IC50 [2, 12]: 6600 ± 600 nM
- IC50 [3]: 4100 ± 300 nM
- IC50 [4]: 7100 ± 200 nM
- IC50 [5]: 410 ± 40 nM
- IC50 [6]: > 50000 nM
- effect on microtubule cytoskeleton ([7]; 4 µM): did not affect the microtubule cytoskeleton
- intracellular ROS level (518A2 melanoma cells [8]): 198 ± 24%

Compound: COc1ccc(-c2ocnc2-c2cc(Br)c(OC)c(OC)c2)cc1OCCCC(=O)NO [4d, N-Hydroxy-4-[1-methoxy-4-(4’-(3’’-bromo-4’’,5’’-dimethoxyphenyl)oxazol-5’-yl)-2-phenoxy]butanamide]
- IC50 after 72 h compared with IC50 after 24 h (518A2 melanoma cells [1]; 518A2 melanoma cells, fold lower): about eight-fold
- IC50 (518A2 melanoma cells [1]; [9]): 110 ± 10 nM
- IC50 (518A2 melanoma cells [1]; [10]): 710 ± 50 nM
- IC50 [2, 11]: 1400 ± 200 nM
- IC50 [2, 12]: 1300 ± 300 nM
- IC50 [3]: 290 ± 20 nM
- IC50 [4]: 480 ± 60 nM
- IC50 [5]: 18 ± 4 nM
- IC50 [6]: 23900 ± 1600 nM
- effect on microtubule cytoskeleton ([7]; 0.5 µM): complete disruption of the microtubule cytoskeleton
- intracellular ROS level (518A2 melanoma cells [8]): 241% ± 17
